Data on four compounds can be found in patent US9018258B2, “Substituted 1-benzylcycloalkylcarboxylic acids and the use thereof” (Bayer Intellectual Property GmbH, priority 2010, dated 2015).

The target in one assay is T1, sGC (Rattus norvegicus, UniProt P20595).
T1 construct: expressed in transfected cells; host or cells: CHO reporter cell
Nature of the assay: Action at a recombinant guanylate cyclase reporter cell line (CHO reporter cell). The format is cell-based. Particulars: CHO reporter cell in vitro. On the procedure: The cellular action of the compounds according to the invention is determined at a recombinant guanylate cyclase reporter cell line, as described in F. Wunder et al., Anal. Biochem. 339, 104-112 (2005).

Assay [1] addresses T2, soluble guanylate cyclase (sGC) (Rattus norvegicus, UniProt P20595).
T2 construct: made in house; host or cells: Sf9 insect cells (baculovirus)
The assay can be described thus: Stimulation of sGC enzyme activity (PPi detection, luciferase). Type of assay: biochemical. The following applies: sGC enzyme in vitro; for EC50: read-out: EC50 (concentration at 50% of maximum efficacy), activating action at the sGC enzyme. How it is done: Soluble guanylate cyclase (sGC) converts on stimulation GTP into cGMP and pyrophosphate (PPi). PPi is detected with the aid of the assay described below. The signal produced in the assay increases as the reaction progresses and serves as a measure of the sGC enzyme activity under the given stimulation.
To carry out the assay, 29 μl of enzyme solution [0-10 nM soluble guanylate cyclase (prepared according to Honicka et al., J. Mol. Med. 77, 14-23 (1999)) in 50 mM TEA, 2 mM MgCl2, 0.1% BSA (fraction V), 0.005% Brij®, pH 7.5] are initially introduced into a microplate, and 1 μl of the substance to be tested (as a serially diluted solution in DMSO) is added. The mixture is incubated at room temperature for 10 min. Then 20 μl of detection mix [1.2 nM Firefly Luciferase (Photinus pyralis luciferase, Promega), 29 μM dehydroluciferin (prepared according to Bitler & McElroy, Arch. Biochem. Biophys. 72, 358 (1957)), 122 μM luciferin (Promega), 153 μM ATP (Sigma) and 0.4 mM DTT (Sigma) in 50 mM TEA, 2 mM MgCl2, 0.1% BSA (fraction V), 0.005% Brij®, pH 7.5] are added. The enzyme reaction is started by adding 20 μl of substrate solution [1.25 mM guanosine 5′-triphosphate (Sigma) in 50 mM TEA, 2 mM MgCl2, 0.1% BSA (fraction V), 0.005% Brij®, pH 7.5] and measured continuously in a luminometer. The extent of the stimulation by the substance to be tested can be determined relative to the signal of the unstimulated reaction.
The activation of haem-free guanylate cyclase is examined by addition of 25 μM of 1H-1,2,4-oxadiazolo[4,3-a]quinoxalin-1-one (ODQ) to the enzyme solution and subsequent incubation for 30 minutes and compared to the stimulation of the native enzyme.

The next assay relates to saphenous artery. The assay can be described thus: Vasorelaxant effect in vitro (phenylephrine-contracted saphenous artery rings). The following applies: Oryctolagus cuniculus; rabbit saphenous artery rings, phenylephrine-induced contraction. The arrangement: species or system Rabbits. On the procedure: Rabbits are anaesthetized and sacrificed by intravenous injection of thiopental sodium (about 50 mg/kg) and exsanguinated. The saphenous artery is removed and divided into rings 3 mm wide. the rings are mounted singly on in each case a pair of triangular hooks open at the end and made of 0.3 mm-thick special wire (Remanium®). Each ring is placed under an initial tension in 5 ml organ baths with Krebs-Henseleit solution which is at 37° C., is gassed with carbogen and has the following composition: NaCl 119 mM; KCl 4.8 mM; CaCl2×2 H2O 1 mM; MgSO4×7 H2O 1.4 mM; KH2PO4 1.2 mM; NaHCO3 25 mM; glucose 10 mM; bovine serum albumin 0.001%. The force of contraction is detected with Statham UC2 cells, amplified and digitized via A/D converters (DAS-1802 HC, Keithley Instruments, Munich) and recorded in parallel on chart recorders. Contractions are induced by addition of phenylephrine.
After several (generally 4) control cycles, the substance to be investigated is added in each further run in increasing dosage, and the level of the contraction achieved under the influence of the test substance is compared with the level of the contraction reached in the last preceding run. The concentration necessary to reduce the contraction reached in the preceding control by 50% is calculated from this (IC50). The standard application volume is 5 μl. The proportion of DMSO in the bath solution corresponds to 0.1%.

The target of another assay is T3, GAL4-PPARγ (Homo sapiens, UniProt P37231).
T3 construct: PPARγ (amino acids 203-506); expressed in transfected cells
T3 sequence (P37231 203-505 limits assumed): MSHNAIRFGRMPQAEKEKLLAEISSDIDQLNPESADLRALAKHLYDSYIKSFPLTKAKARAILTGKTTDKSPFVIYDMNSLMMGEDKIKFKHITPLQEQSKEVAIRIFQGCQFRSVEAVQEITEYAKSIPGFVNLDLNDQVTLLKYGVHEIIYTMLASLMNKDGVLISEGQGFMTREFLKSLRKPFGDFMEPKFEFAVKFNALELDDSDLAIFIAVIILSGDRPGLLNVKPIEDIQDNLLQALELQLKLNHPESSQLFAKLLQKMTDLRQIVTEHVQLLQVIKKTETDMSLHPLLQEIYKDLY
The assay can be described thus: Cellular PPAR transactivation assay, GAL4-PPARγ chimera in CHO-K1 cells. The following applies: for Emax: CHO-K1, maximum effect relative to reference compound (Example 73 of EP 1 452 521-A1 = 100%), read-out: PPARγ efficacy; for EC50: CHO-K1 cells, luciferase reporter, 6 h stimulation. Type of assay: cell-based. The source says: (§1) A cellular assay is used to test for potentially activating properties of the compounds according to the invention with respect to the three human isoforms of the peroxisome proliferator-activated receptors (PPARα, PPARγ and PPARδ).
(§2) Since mammalian cells contain different endogenous nuclear receptors which may complicate an unambiguous interpretation of the results, an established chimera system is used in which the respective ligand binding domain of the human PPAR isoforms is fused to the DNA binding domain of the yeast transcription factor GAL4. The resulting GAL4-PPARα, γ and δ chimeras are co-transfected and stably expressed in CHO cells having a reporter construct.
(§3) The GAL4-PPAR expression constructs contain the ligand binding domain of PPARα (amino acids 167-468), PPARγ (amino acids 203-506) and PPARδ (amino acids 138-442) which are PCR-amplified and cloned into the vector pcDNA3.1. The respective expression vectors already contain the GAL4 DNA binding domain (amino acids 1-147) of the vector pFC2-dbd (Stratagene). The reporter construct, which contains five copies of the GAL4 binding site upstream of a thymidine kinase promoter, expresses firefly luciferase (Photinus pyralis) following activation and binding of GAL4-PPARα, γ or δ.
(§4) The day before the test, CHO-K1 cells (chinese hamster ovary; ATCC CCL-61) each stably expressing one of the above-described GAL4-PPAR chimeras and the luciferase reporter gene construct are sown in medium [Optimem (GIBCO) with 2% activated carbon-purified foetal calf serum (Hyclone), 1.35 mM sodium pyruvate (GIBCO) and 0.2% sodium bicarbonate (GIBCO)] in a density of 1×10^3 cells in 96-well microtitre plates (Greiner) and kept in a cell incubator (96% atmospheric humidity, 5% v/v CO2, 37° C.). On the test day, the substances to be tested are taken up in the medium mentioned above, but without addition of calf serum, and added in various concentrations to the cells. After a stimulation period of 6 h, the luciferase activity is measured using a video camera. The relative light units measured give, as a function of the substance concentration, a sigmoidal stimulation curve. The EC50 values are calculated using the computer programme GraphPad PRISM (Version 3.02). The maximum effect of a test substance in the respective PPAR assay is determined as efficacy in percent in comparison to an appropriate reference compound whose maximum effect is defined as 100%.
(§5) The reference compound selected here was the compound 2-(3-{[(2-chloro-4-propoxybenzoyl)-amino]methyl}-4-ethoxybenzyl)tetrahydrofuran-2-carboxylic acid [Example 73 of EP 1 452 521-A1] which is described in the prior art as a potent pan-PPAR agonist.
A general note: Reporter assays use an easily measured gene product as a stand-in for the process of interest.

The next assay deals with T4, GAL4-PPARα (Homo sapiens, UniProt Q07869).
T4 construct: expressed in transfected cells
T4 sequence (Q07869 167-468): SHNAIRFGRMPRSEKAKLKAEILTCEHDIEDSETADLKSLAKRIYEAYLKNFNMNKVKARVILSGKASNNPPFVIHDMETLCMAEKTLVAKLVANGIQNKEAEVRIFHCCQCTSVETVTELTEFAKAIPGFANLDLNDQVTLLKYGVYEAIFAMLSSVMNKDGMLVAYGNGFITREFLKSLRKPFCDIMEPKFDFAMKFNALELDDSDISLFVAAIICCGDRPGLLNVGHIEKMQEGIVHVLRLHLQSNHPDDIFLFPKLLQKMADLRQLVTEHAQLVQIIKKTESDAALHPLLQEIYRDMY
The assay can be described thus: Cellular PPAR transactivation assay, GAL4-PPARα chimera in CHO-K1 cells. The format is cell-based. The following applies: for Emax: CHO-K1, maximum effect relative to reference compound (Example 73 of EP 1 452 521-A1 = 100%), read-out: PPARα efficacy; for EC50: CHO-K1 cells, luciferase reporter, 6 h stimulation.
Source text: as §1, §2, §3, §4, §5

Another assay deals with T5, GAL4-PPARδ (Homo sapiens, UniProt Q03181).
T5 construct: PPARδ (amino acids 138-442); expressed in transfected cells
T5 sequence (Q03181 138-441 limits assumed): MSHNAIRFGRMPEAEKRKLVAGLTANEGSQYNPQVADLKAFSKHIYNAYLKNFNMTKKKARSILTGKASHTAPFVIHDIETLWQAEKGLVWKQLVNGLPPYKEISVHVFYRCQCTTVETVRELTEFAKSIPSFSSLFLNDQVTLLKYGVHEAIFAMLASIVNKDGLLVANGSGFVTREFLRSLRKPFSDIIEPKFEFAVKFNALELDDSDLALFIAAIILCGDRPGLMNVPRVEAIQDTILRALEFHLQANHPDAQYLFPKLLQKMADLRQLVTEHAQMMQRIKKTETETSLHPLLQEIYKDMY
The assay can be described thus: Cellular PPAR transactivation assay, GAL4-PPARδ chimera in CHO-K1 cells. Particulars: for Emax: CHO-K1, maximum effect relative to reference compound (Example 73 of EP 1 452 521-A1 = 100%), read-out: PPARδ efficacy; for EC50: CHO-K1 cells, luciferase reporter, 6 h stimulation. Type of assay: cell-based.
Source text: as §1, §2, §3, §4, §5

T1 sequence (P19686 whole entry partner): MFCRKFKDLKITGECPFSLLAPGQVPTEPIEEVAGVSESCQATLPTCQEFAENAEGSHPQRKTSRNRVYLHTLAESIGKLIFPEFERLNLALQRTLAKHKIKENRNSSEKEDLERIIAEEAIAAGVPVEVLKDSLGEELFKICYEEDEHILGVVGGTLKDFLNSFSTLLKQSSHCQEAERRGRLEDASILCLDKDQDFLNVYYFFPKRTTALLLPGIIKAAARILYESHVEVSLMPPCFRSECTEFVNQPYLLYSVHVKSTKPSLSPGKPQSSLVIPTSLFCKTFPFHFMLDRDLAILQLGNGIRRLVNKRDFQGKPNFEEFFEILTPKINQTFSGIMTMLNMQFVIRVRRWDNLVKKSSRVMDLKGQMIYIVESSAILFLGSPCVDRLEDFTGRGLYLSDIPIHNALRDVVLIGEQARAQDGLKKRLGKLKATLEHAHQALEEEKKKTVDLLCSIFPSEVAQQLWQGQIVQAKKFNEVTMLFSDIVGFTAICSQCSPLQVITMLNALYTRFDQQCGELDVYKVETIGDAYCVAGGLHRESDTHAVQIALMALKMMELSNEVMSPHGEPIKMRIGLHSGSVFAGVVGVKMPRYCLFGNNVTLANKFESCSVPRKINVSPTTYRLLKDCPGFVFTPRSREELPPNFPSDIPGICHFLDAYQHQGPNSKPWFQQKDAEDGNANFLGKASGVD
T1 sequence (P20595 whole entry): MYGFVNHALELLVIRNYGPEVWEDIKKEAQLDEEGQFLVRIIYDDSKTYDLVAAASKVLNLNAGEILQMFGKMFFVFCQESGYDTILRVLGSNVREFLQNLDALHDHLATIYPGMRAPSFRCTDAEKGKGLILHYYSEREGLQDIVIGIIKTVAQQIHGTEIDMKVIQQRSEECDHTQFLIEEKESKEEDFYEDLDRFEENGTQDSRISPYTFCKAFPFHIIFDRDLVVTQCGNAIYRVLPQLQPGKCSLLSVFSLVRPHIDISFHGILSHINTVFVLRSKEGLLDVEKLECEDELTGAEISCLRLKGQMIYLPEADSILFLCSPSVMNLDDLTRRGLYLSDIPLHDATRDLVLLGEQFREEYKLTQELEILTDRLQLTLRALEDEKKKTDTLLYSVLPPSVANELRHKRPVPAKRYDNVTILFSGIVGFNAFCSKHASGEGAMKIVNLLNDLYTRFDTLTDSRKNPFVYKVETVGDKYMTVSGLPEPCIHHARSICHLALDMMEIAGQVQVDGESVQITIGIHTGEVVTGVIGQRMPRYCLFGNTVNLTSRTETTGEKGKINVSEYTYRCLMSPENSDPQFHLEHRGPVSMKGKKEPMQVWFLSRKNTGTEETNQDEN
T2 sequence (P19686 whole entry partner): as the sequence (P19686 whole entry partner) above
T2 sequence (P20595 whole entry): as the sequence (P20595 whole entry) above

As to `CCOC(c1ccc(Cl)c(NC(=O)[C@H](c2ccc(Cl)cc2)[C@@H](C)C(F)(F)F)c1)C1(C(=O)O)CCC1` (single isomer, unassigned) [Example 109], the “MEC (minimum effective concentration), sGC-activating activity in the CHO reporter cell” value (shortened to “MEC … in the CHO reporter cell”) at sGC is 0.3 nM. Besides, in assay [1], the “MEC (minimum effective concentration), activating action at the sGC enzyme” value (“MEC … at the sGC enzyme” below) is 0.7 nM and the EC50 worked out at 0.02 µM. The compound further displayed a half-inhibitory concentration (IC50) with saphenous artery of 0.338 µM.
Consider `C[C@H]([C@H](C(=O)Nc1cc(CC2(C(=O)O)CC2)ccc1Cl)c1ccc(Cl)cc1F)C(F)(F)F` [Example 32, (+)-1-(4-chloro-3-{[(2S,3R)-2-(4-chloro-2-fluoro-phenyl)-4,4,4-trifluoro-3-methylbutanoyl]-amino}benzyl)cyclopropanecarboxylic acid], for which the “MEC … in the CHO reporter cell” value at sGC came to 2.3 nM. Moreover, the figures for the Emax at GAL4-PPARγ, on GAL4-PPARα and at GAL4-PPARδ were 30%, 0% and 0%, respectively. The EC50 on GAL4-PPARγ was 1.9 µM; at GAL4-PPARα, above 10 µM; in assay [1], 0.0073 µM; at GAL4-PPARδ, above 10 µM. Further, the “MEC … at the sGC enzyme” value in assay [1] is recorded as 0.9 nM.
For `COc1cc([C@@H](C(=O)Nc2cc(CC3(C(=O)O)CC3)ccc2Cl)[C@@H](C)C(F)(F)F)ccc1Cl` [Example 43, 1-(4-chloro-3-{[(2S,3R)-2-(4-chloro-3-methoxy-phenyl)-4,4,4-trifluoro-3-methylbutanoyl]amino}-benzyl)cyclopropanecarboxylic acid], the “MEC … in the CHO reporter cell” value on sGC is reported as 3 nM. The figures for the Emax at GAL4-PPARγ, at GAL4-PPARα and on GAL4-PPARδ were 10%, 0% and 0%, respectively. Also, the EC50 is 1.8 µM on GAL4-PPARγ, above 10 µM at GAL4-PPARα, 0.024 µM in assay [1] and above 10 µM on GAL4-PPARδ. Further, the “MEC … at the sGC enzyme” value in assay [1] came out at 3.4 nM.
Consider `C[C@H]([C@H](C(=O)Nc1cc(CC2(C(=O)O)CC2)ccc1F)c1ccc(Cl)cc1)C(F)(F)F` [Example 51, (+)-1-(3-{[(2S,3R)-2-(4-Chlorophenyl)-4,4,4-trifluoro-3-methylbutanoyl]amino}-4-fluorobenzyl)-cyclopropanecarboxylic acid], for which, on sGC, the “MEC … in the CHO reporter cell” value is 0.3 nM. The Emax on GAL4-PPARγ came to 20%; at GAL4-PPARα it was 0%; on GAL4-PPARδ it was 0%. The EC50 on GAL4-PPARγ is 1.9 µM; at GAL4-PPARα, above 10 µM; in assay [1] it was 0.021 µM; on GAL4-PPARδ, above 10 µM. Also, in assay [1], the “MEC … at the sGC enzyme” value worked out at 3.0 nM.

For orientation: IC50 means the concentration needed to halve the response being measured. Read a low IC50 as greater potency.
